# Results: paper PMC7063992, “Opossum Cathelicidins Exhibit Antimicrobial Activity Against a Broad Spectrum of Pathogens Including West Nile Virus” (Frontiers in Immunology, 2020)
# No end group written: not given here.
# Assays:
# [1] = system: Human primary keratinocytes; assay: Viability of keratinocytes, XTT; assay type: cell-based; conditions: 24 h, XTT
# Source text: The Ethics Committee of the Poitiers Hospital approved the use of human skin samples for research studies. All subjects provided written informed consent in accordance with the tenets of the Declaration of Helsinki. Normal abdominal or breast skin samples were obtained from patients undergoing plastic surgery and thoroughly washed with PBS free of calcium and magnesium (PBS; Gibco, Thermo Fisher Scientific, Waltham, MA, United States) after fat removal. The skin samples were minced into fragments of approximately 125 mm^2, using scalpel blades. Skin samples were incubated overnight at 4°C in a dispase solution (25 U/mL; Life Technologies, Carlsbad, CA, United States). Epidermal sheets were removed from the dermis, and keratinocytes were dissociated via trypsin digestion (trypsin-EDTA; Gibco) for 15 min at 37°C. The cell suspension was then filtered through a 280-μm sterile filter. DMEM (Gibco) supplemented with 10% (vol/vol) of FBS (Gibco) was added, and the suspension was centrifuged at 300 × g and 25°C for 10 min. Keratinocytes were seeded at a density of 10^7 cells in 75-cm^2 tissue culture flask in keratinocyte-serum free medium (K-SFM; Invitrogen, Carlsbad, CA, United States) supplemented with bovine pituitary extract (25 μg/mL; Invitrogen) and recombinant epidermal growth factor (EGF) (0.25 ng/mL; Invitrogen). The cultures were incubated at 37°C in a humidified atmosphere with 5% CO2 until 80% confluence and then stored frozen in liquid nitrogen until use. Finally, keratinocytes were seeded in sterile 24-well culture plates at 10^5 cells/well in K-SFM supplemented with bovine pituitary extract and EGF and cultured to 80% confluence. Cells were then starved overnight in K-SFM alone before stimulation.
# Primary keratinocytes were cultured in 96-well plates at 4 × 10^4 cells per well in 0.1 mL K-SFM (Invitrogen) up to 80% confluence before being treated with various concentrations of ModoCath peptides for 24 h. Cell viability was assessed using the cell proliferation kit II (XTT; Roche, Basel, Switzerland) in accordance with the manufacturer’s protocol. The XTT labeling mixture was added after 24 h of incubation in the absence or presence of peptides at the indicated concentrations.
# [2] = system: HEK293T and MCF7 cells and human primary keratinocytes; assay: Cytotoxicity, summary over all tested cells; assay type: cell-based; conditions: at concentrations below 16 μg/mL
# Method: Two mammalian cell lines, including human embryonic kidney cells (HEK293T) and human breast cancer cells (MCF7) were cultured in Dulbecco’s modified Eagle’s medium (DMEM; Hyclone^TM, Logan, UT, United States) supplemented with 10% FBS (Hyclone^TM) and 1% penicillin/streptomycin (Hyclone^TM) and incubated at 37°C and 5% CO2 up to 80% confluence. Cellular adherence to the substratum was disrupted using Accutase (Innovative Cell Technologies, San Diego, CA, United States). In total, 1 × 10^4 to 4 × 10^4 cells in each well of a 96-well plate containing 8, 16, 32, and 64 μg/mL of ModoCath peptides were incubated for 24 h at 37°C and 5% CO2. Additionally, HEK293T cells were incubated in the FBS-free medium. […] Absorbance was measured for each well at 440 nm (peptide-treated and control) and 650 nm (background) and recorded as the OD, using a microplate reader (xMark^TM spectrophotometer; Bio-Rad). Cell viability was calculated using the following equation: […]
# Primary keratinocytes were cultured in 96-well plates at 4 × 10^4 cells per well in 0.1 mL K-SFM (Invitrogen) up to 80% confluence before being treated with various concentrations of ModoCath peptides for 24 h. Cell viability was assessed using the cell proliferation kit II (XTT; Roche, Basel, Switzerland) in accordance with the manufacturer’s protocol. […]
# [3] = system: E. coli (ATCC 25922); assay: Serum stability: antimicrobial activity after incubation in human serum; assay type: in vitro ADME, Escherichia coli; conditions: for antimicrobial activity after incubation with human serum: 25% (v/v) pooled human serum, 37°C, activity against E. coli, OD 450 nm, triplicate; for antimicrobial activity after incubation with serum: 25% pooled human serum, 0, 60 and 120 min, Figure S6
# Method: Antimicrobial peptides were dissolved in 25% (v/v) pooled human serum from five individuals, and incubated at 37°C. Aliquots were extracted in triplicate after 0, 60, and 120 min incubation, and their antimicrobial activity against E. coli (ATCC 25922) was assessed using the incubated samples, as described above.
# [4] = system: HEK293T; assay: Mammalian cell cytotoxicity, WST-1, FBS-free medium; assay type: cell-based, human; conditions: HEK293T cells, mean ± SD, triplicated
# Method: Two mammalian cell lines, including human embryonic kidney cells (HEK293T) and human breast cancer cells (MCF7) were cultured in Dulbecco’s modified Eagle’s medium (DMEM; Hyclone^TM, Logan, UT, United States) supplemented with 10% FBS (Hyclone^TM) and 1% penicillin/streptomycin (Hyclone^TM) and incubated at 37°C and 5% CO2 up to 80% confluence. Cellular adherence to the substratum was disrupted using Accutase (Innovative Cell Technologies, San Diego, CA, United States). In total, 1 × 10^4 to 4 × 10^4 cells in each well of a 96-well plate containing 8, 16, 32, and 64 μg/mL of ModoCath peptides were incubated for 24 h at 37°C and 5% CO2. Additionally, HEK293T cells were incubated in the FBS-free medium. Triton X 100 (Sigma Aldrich) was used as a positive control for complete cell lysis, and untreated cells were used as the negative control. After incubation, the medium was removed from the wells, and 10 μL of coloring solution (Cell Proliferation Reagent WST-1^TM; Sigma Aldrich) and 100 μL of DMEM (Hyclone^TM) were added to the wells in accordance with the manufacturer’s protocol. Absorbance was measured for each well at 440 nm (peptide-treated and control) and 650 nm (background) and recorded as the OD, using a microplate reader (xMark^TM spectrophotometer; Bio-Rad). Cell viability was calculated using the following equation:
# (1) CellViability(%)=100×(ODpeptide-ODbackground)/(ODnegative-ODbackground)
# All experiments were performed in triplicate.
# [5] = at a higher concentration than 1x MIC
Sequence,Cell viability ± SD ([1]; 8 μg/mL),Cell viability ± SD ([1]; 16 μg/mL),Cell viability ± SD ([1]; 32 μg/mL),Cell viability ± SD ([1]; 64 μg/mL),Cell survivability [2],"antimicrobial activity after incubation with human serum ([3]; 60 min, at >∼2× MIC)",antimicrobial activity after incubation with human serum ([3]; 120 min),antimicrobial activity after incubation with serum ([3]; at 1x MIC),"antimicrobial activity after incubation with serum [3, 5]",Cell viability ± SD (%) Serum negative ([4]; peptide 8 ㎍/㎖),Cell viability ± SD (%) Serum negative ([4]; peptide 16 ㎍/㎖),Cell viability ± SD (%) Serum negative ([4]; peptide 32 ㎍/㎖),Cell viability ± SD (%) Serum negative ([4]; peptide 64 ㎍/㎖)
VRRSKRGIKVPSFVKKVLKDVVSESIS [ΔModoCath6],98.0 ± 1.6%,100.3 ± 1.3%,101.0 ± 2.6%,89.2 ± 7.2%,> 90%,–,–,–,–,–,–,–,–
VKRTKRGARRGLTKVLKKIFGSIVKKAVSKGV [ΔModoCath1],97.1 ± 2.9%,91.4 ± 1.6%,56.2 ± 8.4%,5.8 ± 3.7%,> 90%,unaffected,decreased,highly affected,considerably stable,109.5±9.8%,103.7±6.9%,69.5±7.9%,55.9±4.4%
WYQLIRTFGNLIHQKYRKLLEAYRKLRD [ΔModoCath5],98.1 ± 0.6%,96.2 ± 3.5%,79.1 ± 13.0%,48.9 ± 15.5%,–,unaffected,decreased,highly affected,considerably stable,98.6±6.5%,63.5±5.2%,39.3±7.6%,34.0±1.6%
